Patent publication US7670991B2, “Substituted benzoylcyclohexenones and their use as herbicidal agents” (Bayer CropScience AG, priority 2001, dated 2010)

Experiment: log P by reversed-phase HPLC (C 18), acidic range
Type: physicochemical
Details: marked a): acidic range
Experimental: Temperature: 43° C. (a) Mobile phases for the determination in the acidic range: 0.1% aqueous phosphoric acid, acetonitrile; linear gradient from 10% acetonitrile to 90% acetonitrile—the corresponding measurement results are marked ^a) in Table 1.

[1] = 0.1% aqueous phosphoric acid, acetonitrile, HPLC reversed-phase column (C 18), 43° C.
[2] = 0.1% aqueous phosphoric acid/acetonitrile gradient, HPLC C 18, 43° C.

| Structure (SMILES) | logP [1] | logP [2] |
| --- | --- | --- |
| CON(C)C(=O)Nc1c(Cl)ccc(C(=O)C2=C(O)CC(C)CC2=O)c1Cl (racemic) [Example 3-1] | (I-2) logP = 2.33^a) | – |
| CC1CC(=O)C(C(=O)c2ccc(Cl)c(NC(=O)N3CCCO3)c2Cl)=C(O)C1 (racemic) [Example 3-61] | (I-2) logP = 2.25^a) | – |
| CC1CC(=O)C(C(=O)c2ccc(Cl)c(NC(=O)N3CCCCO3)c2Cl)=C(O)C1 (racemic) [Example 3-69] | (I-2) logP = 2.52^a) | – |
| CCN(CC)C(=O)Nc1c(Cl)ccc(C(=O)C2=C(O)CCCC2=O)c1Cl [Example 1-7] | – | (I-2) logP = 2.21^a) |
| CNC(=O)Nc1c(Cl)ccc(C(=O)C2=C(O)CCCC2=O)c1Cl [Example 1-8] | – | (I-2) logP = 1.46^a) |
| CCNC(=O)Nc1c(Cl)ccc(C(=O)C2=C(O)CCCC2=O)c1Cl [Example 1-9] | – | (I-2) logP = 1.70^a) |
| CN(C)C(=O)Nc1c(Cl)ccc(C(=O)C2=C(O)CCCC2=O)c1Cl [Example 1-10] | – | (I-2) logP = 1.64^a) |
| CC(C)NC(=O)Nc1c(Cl)ccc(C(=O)C2=C(O)CCCC2=O)c1Cl [Example 1-12] | – | (I-2) logP = 1.99^a) |
| O=C(Nc1c(Cl)ccc(C(=O)C2=C(O)CCCC2=O)c1Cl)NC1CC1 [Example 1-13] | – | (I-2) logP = 1.77^a) |
| O=C1CCCC(O)=C1C(=O)c1ccc(Cl)c(NC(=O)N2CCCC2)c1Cl [Example 1-16] | – | (I-2) logP = 1.90^a) |
| CCN1CCCN(C(=O)Nc2c(Cl)ccc(C(=O)C3=C(O)CCCC3=O)c2Cl)C1=O [Example 1-23] | – | (I-2) logP = 2.65^a) |
| CC(C)N1CCCN(C(=O)Nc2c(Cl)ccc(C(=O)C3=C(O)CCCC3=O)c2Cl)C1=O [Example 1-25] | – | (I-2) logP = 2.98^a) |
| O=C(NCC1CCCO1)Nc1c(Cl)ccc(C(=O)C2=C(O)CCCC2=O)c1Cl (centres unmarked) [Example 1-33] | – | (I-2) logP = 1.81^a) |
| COC(CNC(=O)Nc1c(Cl)ccc(C(=O)C2=C(O)CCCC2=O)c1Cl)OC [Example 1-35] | – | (I-2) logP = 1.72^a) |
| O=C(Nc1nnc(C(F)(F)F)s1)Nc1c(Cl)ccc(C(=O)C2=C(O)CCCC2=O)c1Cl [Example 1-40] | – | (I-2) logP = 2.78^a) |
| CN1CCN(C(=O)Nc2cc(C(F)(F)F)ccc2C(=O)C2=C(O)CCCC2=O)C1=O [Example 1-100] | – | (I-1) logP = 2.57^a) |
| O=C(Nc1c(Cl)ccc(C(=O)C2=C(O)CCCC2=O)c1Cl)NN1CCCC1 [Example 1-101] | – | (I-2) logP = 1.94^a) |
| O=C1CCCC(O)=C1C(=O)c1ccc(Cl)c(NC(=O)N2CCCN(C3CCCCC3)C2=O)c1Cl [Example 1-103] | – | (I-2) logP = 3.86^a) |
| CN1CCN(C(=O)N(C)c2cc(C(F)(F)F)ccc2C(=O)C2=C(O)CCCC2=O)C1=O [Example 1-104] | – | (I-1) logP = 2.04^a) |
| O=C1CCCC(O)=C1C(=O)c1ccc(Cl)c(NC(=O)N2CCCCC2)c1Cl [Example 1-105] | – | (I-2) logP = 2.26^a) |
| NC(=O)Nc1c(Cl)ccc(C(=O)C2=C(O)CCCC2=O)c1Cl [Example 1-106] | – | (I-2) logP = 1.29^a) |
| CCCNC(=O)Nc1c(Cl)ccc(C(=O)C2=C(O)CCCC2=O)c1Cl [Example 1-107] | – | (I-2) logP = 1.98^a) |
| CONC(=O)Nc1c(Cl)ccc(C(=O)C2=C(O)CCCC2=O)c1Cl [Example 1-108] | – | (I-2) logP = 1.58^a) |
| CCCN(CCC)C(=O)Nc1c(Cl)ccc(C(=O)C2=C(O)CCCC2=O)c1Cl [Example 1-109] | – | (I-2) logP = 2.95^a) |
| COc1cc(NC(=O)N2CCN(C)C2=O)ccc1C(=O)C1=C(O)CCCC1=O [Example 1-110] | – | (I-3) logP = 1.93^a) |
| O=C1CCCC(O)=C1C(=O)c1ccc(Cl)c(NC(=O)c2cccs2)c1Cl [Example 1-111] | – | (I-2) logP = 2.34^a) |
| COCCN(C)C(=O)Nc1c(Cl)ccc(C(=O)C2=C(O)CCCC2=O)c1Cl [Example 1-132] | – | (I-2) logP = 2.04^a) |
| COCCN(CCOC)C(=O)Nc1c(Cl)ccc(C(=O)C2=C(O)CCCC2=O)c1Cl [Example 1-134] | – | (I-2) logP = 2.40^a) |
| CCONC(=O)Nc1c(Cl)ccc(C(=O)C2=C(O)CCCC2=O)c1Cl [Example 1-136] | – | (I-2) logP = 1.88^a) |
